The data set is described as follows: Serum estriol levels in the clinical trial. In kind it is in vivo, human. The source says:
Safety assessments, including clinical, blood laboratory safety testing and assessments of estriol levels, occurred at months 0, 3, 6, 12, 18, and 24. On study blood tests included complete blood count (CBC) with differential and platelets; chemistry panel including sodium, potassium, creatinine, BUN, glucose, total protein, albumin, bilirubin (total), alkaline phosphatase, AST (SGOT), and ALT (SGPT), and lipid profile (HDL, LDL and triglycerides, cholesterol. Gynecologic exams were done at month 0, 6, 18 and at month 24 exit, with uterine ultrasounds at months 6, 18 and at month 24 exit. Mammograms were done in screening and at month 24 exit. Adverse event analysis was based on the percentage of patients who discontinued the study and the percentage of patients who discontinued the study possibly due to adverse events.
Free estriol levels were also measured and followed a similar pattern of change within individuals as total levels, with absolute free levels a fraction of the magnitude of the absolute total levels as expected.

For glatiramer acetate [Placebo + GA], the “Serum total estriol level, Mean ± SD” value (Month 0) is 2.1 ± 2.3 ng/mL; the “Serum total estriol level, Mean ± SD” value (Month 3) is listed as 2.1 ± 1.6 ng/mL; the “Serum total estriol level, Mean ± SD” value (Month 6) came to 1.9 ± 1.4 ng/mL; the “Serum total estriol level, Mean ± SD” value (Month 12) worked out at 2.0 ± 1.4 ng/mL; the “Serum total estriol level, Mean ± SD” value (Month 18) was found to be 1.8 ± 1.2 ng/mL; the “Serum total estriol level, Mean ± SD” value (Month 24) was 1.8 ± 1.1 ng/mL. Also, the “Serum total estriol level, Median” value turned out to be 1.6 ng/mL (Month 0); 1.8 ng/mL (Month 3); 1.8 ng/mL (Month 6); 1.8 ng/mL (Month 12); 1.8 ng/mL (Month 18); 1.6 ng/mL (Month 24). Moreover, for the setting “Month 3”, the “Serum estriol concentrations (in words)” value is “did not exceed the estriol assay detection limit”.

The record behind these values is patent publication US10406169B2, “Methods of monitoring estriol therapy” (The Regents of the University of California, priority 2015, dated 2019).
